One data set concerns human PBMCs. Briefly: Human PBMC co-culture cytokine secretion assay with EphA2-expressing tumor cells (MC38, HT-1080, HT29). Type of data set: cell-based. Conditions: human PBMC-MC38 co-culture. As for the experimental part: […] MC38 were cultured in Dulbecco's Modified Eagle Medium supplemented with 10% heat inactivated Fetal Bovine Serum (FBS), 1× Penicillin/Streptomycin, 10 mM HEPES, and 2 mM L-Glutamine (referred to as R10 medium). Frozen PBMCs from healthy human donors were thawed and washed once in room temperature PBS with benzonase, and then resuspended in RPMI supplemented with 10% heat inactivated Fetal Bovine Serum (FBS), 1× Penicillin/Streptomycin, 10 mM HEPES, and 2 mM L-Glutamine (herein referred to as R10 medium). 100 μl of PBMCs (1,000,000 PBMCs/ml) and 100 μl of tumor cells (100,000 tumor cells/ml) (Effector:Target cell ratio (E:T) 10:1) were plated in each well of a 96 well flat bottom plate for the co-culture assay. 100 ng/ml of soluble anti-CD3 mAb (clone OKT3) was added to the culture on day 0 to stimulate human PBMCs. Test, control compounds, or vehicle controls were diluted in R10 media and 50 μL was added to respective wells to bring the final volume per well to 250 μL. Plates were covered with a breathable film and incubated in a humidified chamber at 37° C. with 5% CO2 for two days. […] Briefly, the standards and samples were added to a black 96 well plate. Microparticle cocktail (provided in Luminex kit, R&D Systems) was added and shaken for 2 hours at room temperature. The plate was washed 3 times using a magnetic holder. Biotin cocktail was then added to the plate and shaken for 1 hour at RT. The plate was washed 3 times using a magnetic holder. Streptavidin cocktail was added to the plate and shaken for 30 minutes at RT. The plates were washed 3 times using a magnetic holder, resuspended in 100 μL of wash buffer, shaken for 2 minutes at RT, and read using the Luminex 2000. Raw data were analyzed using built-in Luminex software to generate standard curves and interpolate protein concentrations, all other data analyses and graphing were performed using Excel and Prism software. Data represents one study with three independent donor PBMCs tested in experimental duplicates.
Similarly, PBMCs from healthy donors were co-cultured with EphA2 expressing cancer cells (MC38 and HT-1080) at a ratio of 5:1 in presence of anti-CD3 and BCY13272. […]

The target in another data set is CD137 (Homo sapiens, UniProt Q07011). Put plainly: CD137 reporter assay (Promega, Jurkat cells) in co-culture with EphA2-expressing tumor cells (A549, PC3, HT29). In kind it is cell-based. The arrangement: host or cells: Jurkat reporter cells. Particulars: for Emax (fold induction over background): CD137 reporter coculture assay with PC3 tumor cells; for pEC50: EC50, CD137 reporter coculture assay with PC3 tumor cells. Put shortly:
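Readout is Bio-Glo luminescence after 6 h, 37° C co-culture of CD137 reporter Jurkat cells, target tumor cells (EphA2: A549, PC3, HT29; PD-L1: RKO) and titrated test articles in 1% FBS RPMI. EC50 (nM) and maximal induction come from fold change over untreated co-culture.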

Data set [1] in a line: Pharmacokinetics in SD rats. Type of data set: in vivo. Conditions: male, SD, rat, plasma, IV Inf (15 minutes); for half-life: iv, read-out: T1/2 (converted); for clearance: read-out: Clp; for Vd: read-out: Vdss. As for the experimental part:
Male SD Rats were dosed with each heterotandem Bicycle peptide complex formulated in 25 mM Histidine HCl, 10% sucrose pH 7 by IV bolus or IV infusion (15 minutes). Serial bleeding (about 80 μL blood/time point) was performed via submandibular or saphenous vein at each time point. All blood samples were immediately transferred into prechilled microcentrifuge tubes containing 2 μL K2-EDTA (0.5M) as anti-coagulant and placed on wet ice. Blood samples were immediately processed for plasma by centrifugation at approximately 4° C., 3000 g. The precipitant including internal standard was immediately added into the plasma, mixed well and centrifuged at 12,000 rpm, 4° C. for 10 minutes. The supernatant was transferred into pre-labeled polypropylene microcentrifuge tubes, and then quick-frozen over dry ice. The samples were stored at […] or below as needed until analysis. 7.5 μL of the supernatant samples were directly injected for LC-MS/MS analysis using an Orbitrap Q Exactive in positive ion mode to determine the concentrations of analyte. Plasma concentration versus time data were analyzed by non-compartmental approaches using the Phoenix WinNonlin 6.3 software program. C0, CI, Vdss, T½, AUC(0-last), AUC(0-inf), MRT(0-last), MRT(0-inf) and graphs of plasma concentration versus time profile were reported.

The next data set relates to MC38 tumors. Briefly: Anti-tumor activity of EphA2/CD137 complexes in syngeneic MC38 tumor model. In kind it is in vivo, C57BL/6J-hCD137 mice. Particulars: 5 mg/kg IV BIW, 6 doses; day 28. As for the experimental part:
6-8 weeks old C57BL/6J-hCD137 female mice were inoculated in the flank with 1×10^6 syngeneic MC38 cells. When tumors reached 76 mm^3 size on average, mice were randomized to receive vehicle or BCY12491 (intraperitoneal administration). BCY12491 was administered (n=6 mice/treatment cohort) at either 5 mg/kg or 15 mg/kg either daily (QD) or every three days (Q3D). QD dosed mice received 22 doses of BCY12491 and Q3D dosed mice received 8 doses of BCY12491. Tumor growth was monitored by caliper measurements until day 73 after treatment initiation. The results of this experiment may be seen in FIG. 9 where it can be seen that the effect of BCY12491 on tumor growth becomes apparent in the first two weeks of the dosing period reducing the tumor growth and causing reduction of volumes of many of the treated tumors. By day 41, 15 out of 24 BCY12491 treated animals had completely responded to the treatment and had no palpable tumors left.
6-8 week old female C57BL/6J-hCD137 mice [B-hTNFRSF9(CD137) mice; Biocytogen] were implanted subcutaneously with 1×10^6 MC38 cells. Mice were randomized into treatment groups (n=6/cohort) when average tumor volumes reached around 76 mm^3 and were treated with daily doses of vehicle (25 mM histidine, 10% sucrose, pH7). BCY12491 treatment was conducted at two different dose levels (5 and 15 mg/kg) and two different dosing schedules (QD: daily; Q3D: every three days). Animals received either 22 QD doses or 8 Q3D doses intraperitoneally (ip). Tumor growth was monitored until tumor reached volumes over 2000 mm^3 or until 73 days after treatment initiation. After Day 73, 5 complete responder animals were re-challenged with MC38 tumor cell implantation alongside with 5 naïve C57BL/6J-hCD137 mice. Tumor growth was monitored for 20 days.
6-8 week old female C57BL/6J-hCD137 mice [B-hTNFRSF9(CD137) mice; Biocytogen] were implanted subcutaneously with 1×10^6 MC38 cells. Mice were randomized into treatment groups (n=6/cohort) when average tumor volumes reached around 92 mm^3 and were treated intravenously with Q3D doses of vehicle (25 mM histidine, 10% sucrose, pH7), 15 mg/kg of BCY12730, BCY12723 or BCY12491 (7 Q3D doses). Tumor growth was monitored for 28 days or until tumors exceeded 2000 mm^3.
6-8 week old female C57BL/6J-hCD137 mice [B-hTNFRSF9(CD137) mice; Biocytogen] were implanted subcutaneously with 1×10^6 MC38 cells. Mice were randomized into treatment groups (n=6/cohort) when average tumor volumes reached around 76 mm^3 and were treated intravenously with twice weekly (BIW) doses of vehicle (25 mM histidine, 10% sucrose, pH7), 5 mg/kg of BCY13048, BCY13050, or BCY12491 (6 BIW doses). Tumor growth was monitored for 28 days or until tumors exceeded 2000 mm^3.

A further data set relates to MC38 tumor tissue. Put plainly: Immune response in MC38 tumors (nCounter transcriptional analysis, CD8 IHC). Type of data set: in vivo, C57BL/6J-hCD137 mice. Conditions: Q3D x3, peptides 15 mg/kg IV, anti-CD137 2 mg/kg ip. Here is the method:
6-8 week old female C57BL/6J-hCD137 mice [B-hTNFRSF9(CD137) mice; Biocytogen] were implanted subcutaneously with 1×10^6 MC38 cells. Mice were randomized into treatment groups when average tumor volumes reached around 240 mm^3 and were treated (n=6/treatment cohort) with vehicle (25 mM histidine, 10% sucrose, pH7) intravenously (IV), 15 mg/kg BCY12491 (EphA2: CD137 1:2 Heterotandem Complex) IV, 15 mg/kg BCY13626 (non-binding control for EphA2) IV or 2 mg/kg Anti-CD137 (urelumab analogue) intraperitoneally. All treatments were given Q3D for three doses and tumor tissues were harvested 1 hour after the last dose. Part of the tumor tissue was used for RNA isolation for transcriptional analysis and a part of the tumor tissue was used for formalin fixed paraffin embedded (FFPE) sample preparation for immunohistochemical (INC) analysis. RNA was isolated from tumor tissues using RNAeasy kit [Qiagen] and transcriptional analysis was performed using nCounter Mouse PanCancer IO 360 panel (Nanostring) from 100 ng RNA/tumor. Data was analysed using the nSolver Analysis Software (Nanostring). CD8+ tumor infiltrating cells were stained in FFPE tissue sections using anti-mouse CD8 antibody (Abcam, #ab217344) and Ventana Discovery OmniMap anti Rabbit-HRP Kit (Ventana #760 4310).

pEC50: −log10 of the molar value. Where two headings read alike, the source gives them in different places. Starred links: 1 amine or outer side, 2 acyl side, 3 side chain; linkers in the order of their positions; H or OH if unused. Positions of bridges follow the written chain, without caps; N, C: chain ends. Non-standard residues stand in square brackets, D forms with d. Chains are numbered I, II in the order given. ξ: configuration not given here. X1 = O=C(CCOCCOCCOCCN(CCOCCOCCOCCn1cc(CCC(=O)[*:2])nn1)CCOCCOCCOCCn1cc(CCC(=O)[*:3])nn1)[*:1]; X3 = O=C(CCc1cn(CCOCCOCCOCCN(CCOCCOCCOCCC(=O)[*:3])CCOCCOCCOCCn2cc(CCC(=O)[*:2])nn2)nn1)[*:1]; TATA = O=C(CC[*:1])N1CN(C(=O)CC[*:2])CN(C(=O)CC[*:3])C1; ξDip = NC(C(=O)O)C(c1ccccc1)c1ccccc1; Hyp = O=C(O)[C@@H]1C[C@@H](O)CN1; hArg = N=C(N)NCCCC[C@H](N)C(=O)O; tBuAla = CC(C)(C)C[C@H](N)C(=O)O; Cba = N[C@@H](CC1CCC1)C(=O)O; Nle = CCCC[C@H](N)C(=O)O; ξP = O=C(O)C1CCCN1

Sequence of CD137 (Q07011 24-255): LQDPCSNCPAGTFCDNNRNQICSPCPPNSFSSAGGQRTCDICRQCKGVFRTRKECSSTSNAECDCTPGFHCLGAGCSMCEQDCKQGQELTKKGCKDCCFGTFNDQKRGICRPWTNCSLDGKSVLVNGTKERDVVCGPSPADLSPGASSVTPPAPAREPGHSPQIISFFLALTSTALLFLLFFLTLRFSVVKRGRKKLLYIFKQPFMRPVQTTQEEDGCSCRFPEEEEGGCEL

Turning to “I: Ac-C[tBuAla]PE[dK]PYCFADPY[Nle]CA-NH2 / II: Ac-C[tBuAla]PE[dK]PYCFADPY[Nle]CA-NH2 / III: C[Hyp]LVNPLCL[ξDip]P[dD]WTC-NH2 (linker I:1-I:8-I:15, II:1-II:8-II:15, III:1-III:8-III:15 via TATA; linker I:5-II:5-III:N via X3) [BCY13048]”, the pEC50 in the data set with human PBMCs (Donor 1, 48 h incubation, read-out: Donor 1 EC50 of IFNγ secretion) is 9.52. For the same substance, the pEC50 with human PBMCs (Donor 2, 48 h incubation, read-out: Donor 2 EC50 of IFNγ secretion) was 9.62. Besides, on CD137, the “Emax (fold induction over background)” value turned out to be 48.35 and the pEC50 was 10.05. In data set [1], the half-life was 3.8 h, the clearance came to 11 mL/min/kg and the Vd was 1.2 L/kg. Besides, the complete responses in the data set on MC38 tumors is given as 5 out of 6.

As for “I: A[hArg]DC[Hyp][Cba]VN[ξP]LCLHP[dD]W[hArg]C-NH2 / II: Ac-C[tBuAla]PE[dK]PYCFADPY[Nle]CA-NH2 / III: Ac-C[tBuAla]PE[dK]PYCFADPY[Nle]CA-NH2 (linker I:4-I:11-I:18, II:1-II:8-II:15, III:1-III:8-III:15 via TATA; linker I:N-II:5-III:5 via X1) [BCY13050]”, the pEC50 with human PBMCs (Donor 1, 72 h incubation, read-out: Donor 1 EC50 of IFNγ secretion) was 9.42. Moreover, the pEC50 in the data set with human PBMCs (Donor 2, 72 h incubation, read-out: Donor 2 EC50 of IFNγ secretion) is 9.72. For the same substance, on CD137, the “Emax (fold induction over background)” value came out at 42.46 and the pEC50 was 10.05. In data set [1], the half-life was 3.3 h, the clearance stood at 11 mL/min/kg and the Vd worked out at 1.4 L/kg. In addition, the complete responses in the data set with MC38 tumors is 3 out of 6.

Turning to “anti-CD137 antibody: Anti-CD137 (urelumab analogue)”, in the data set with MC38 tumor tissue, the “CD8+ cell infiltration in tumor (IHC)” value is “Some increase in CD8+ cell infiltration”. In the data set on MC38 tumor tissue (vs vehicle), the “T cell score in tumor tissue” value is reported as “increased significantly” and the “cytotoxic cell score in tumor tissue” value is given as “increased significantly”.

Broadly, the pEC50 is the EC50 on a negative log10 scale, so that one unit is a factor of ten.

The values above are taken from US20230129258A1, “HETEROTANDEM BICYCLIC PEPTIDE COMPLEXES” (BicycleTx Limited, priority 2019, published 2023).
